Test results published in ChEMBL document CHEMBL4706519, “Evaluation of N-phenyl-2-aminothiazoles for treatment of multi-drug resistant and intracellular Staphylococcus aureus infections” (Eur J Med Chem, 2020).
Values after ≈ are worked out from the molar mass of the structure shown.

Key:
[1] = tested on: Escherichia coli; test: Antibacterial activity against wild type Escherichia coli BW25113 assessed as inhibition of bacterial growth measured after 18 to 20 hrs by broth microdilution method; format: functional; details: time 18-20 hrs
[2] = tested on: Staphylococcus aureus; test: Antibacterial activity against methicillin-resistant Staphylococcus aureus USA300 NRS384 assessed as inhibition of bacterial growth measured after 18 to 20 hrs by broth microdilution method; format: functional; details: time 18-20 hrs
[3] = tested on: Escherichia coli; test: Antibacterial activity against Escherichia coli JW55031 harboring toIC efflux mutant assessed as inhibition of bacterial growth measured after 18 to 20 hrs by broth microdilution method; format: functional; details: time 18-20 hrs
[4] = tested on: Staphylococcus aureus; test: Ratio of MIC for methicillin-resistant Staphylococcus aureus USA400 NRS123 measured after 14th passage to MIC for methicillin-resistant Staphylococcus aureus USA400 NRS123 measured after 18 to 20 hrs by broth microdilution assay; format: functional
[5] = tested on: Listeria monocytogenes; test: Antibacterial activity against Listeria monocytogenes ATCC 19111 assessed as inhibition of bacterial growth measured after 18 to 20 hrs by CLSI protocol based broth microdilution method; format: functional; details: time 18-20 hrs
[6] = tested on: Staphylococcus aureus; test: Antibacterial activity against vancomycin-resistant Staphylococcus aureus 12 assessed as inhibition of bacterial growth measured after 18 to 20 hrs by CLSI protocol based broth microdilution method; format: functional; details: time 18-20 hrs
[7] = tested on: Streptococcus pneumoniae; test: Antibacterial activity against cephalosporin-resistant Streptococcus pneumoniae ATCC 51916 assessed as inhibition of bacterial growth measured after 18 to 20 hrs by CLSI protocol based broth microdilution method; format: functional; details: time 18-20 hrs
[8] = tested on: Staphylococcus aureus; test: microbe, parasite or virus in culture; details: NRS119
[9] = tested on: Staphylococcus epidermidis; test: Antibacterial activity against methicillin-resistant Staphylococcus epidermidis NRS101 assessed as inhibition of bacterial growth measured after 18 to 20 hrs by CLSI protocol based broth microdilution method; format: functional; details: time 18-20 hrs
[10] = tested on: Enterococcus faecalis; test: microbe, parasite or virus in culture; details: ATCC 51299
[11] = tested on: Staphylococcus aureus; test: microbe, parasite or virus in culture; details: USA500 NRS385
[12] = tested on: Staphylococcus aureus; test: microbe, parasite or virus in culture; details: USA700 NRS386
[13] = tested on: Streptococcus pneumoniae; test: Antibacterial activity against methicillin-resistant Streptococcus pneumoniae ATCC 700677 assessed as inhibition of bacterial growth measured after 18 to 20 hrs by CLSI protocol based broth microdilution method; format: functional; details: time 18-20 hrs
[14] = tested on: Staphylococcus aureus; test: microbe, parasite or virus in culture; details: USA400 NRS123
[15] = tested on: Staphylococcus aureus; test: microbe, parasite or virus in culture; details: NRS107
[16] = tested on: Staphylococcus aureus; test: Antibacterial activity against vancomycin-resistant Staphylococcus aureus 10 assessed as inhibition of bacterial growth measured after 18 to 20 hrs by CLSI protocol based broth microdilution method; format: functional; details: time 18-20 hrs
[17] = tested on: Enterococcus faecium; test: Antibacterial activity against vancomycin-resistant Enterococcus faecium ATCC 700221 assessed as inhibition of bacterial growth measured after 18 to 20 hrs by CLSI protocol based broth microdilution method; format: functional; details: time 18-20 hrs
[18] = tested on: Staphylococcus aureus; test: microbe, parasite or virus in culture; details: ATCC 6538
[19] = physchem; details: phosphate-buffered saline, pH 7.4
[20] = tested on: Staphylococcus aureus; test: Bactericidal activity against methicillin-resistant Staphylococcus aureus USA400 NRS123 assessed as post-antibiotic effect at 5 times MIC incubated for 2 hrs followed by compound wash-out by viable plate count method; format: functional

## C/C(=N\NC(=N)N)c1ccc(Nc2nc(-c3ccc(Br)cc3)cs2)cc1
[1]
  MIC: 4 µg/mL (≈ 9.32 µM)
[2]
  MIC: 16 µg/mL (≈ 37.3 µM)
[3]
  MIC: 2 µg/mL (≈ 4.66 µM)

## COc1ccc(-c2csc(Nc3ccc(C(C)=O)cc3)n2)cc1
[1]
  MIC: > 64 µg/mL
[2]
  MIC: > 64 µg/mL
[3]
  MIC: > 64 µg/mL

## COc1ccc(-c2csc(Nc3ccc(/C(C)=N/NC(N)=S)cc3)n2)cc1
[1]
  MIC: > 64 µg/mL
[2]
  MIC: > 64 µg/mL
[3]
  MIC: > 64 µg/mL

## C/C(=N\NC(N)=O)c1ccc(Nc2nc(-c3ccc(Br)cc3)cs2)cc1
[1]
  MIC: > 64 µg/mL
[2]
  MIC: > 64 µg/mL
[3]
  MIC: > 64 µg/mL

## COc1ccc(-c2csc(Nc3ccc(/C(C)=N/NC(N)=O)cc3)n2)cc1
[1]
  MIC: > 64 µg/mL
[2]
  MIC: > 64 µg/mL
[3]
  MIC: > 64 µg/mL

## CC(=O)c1ccc(Nc2nc(-c3ccccc3)cs2)cc1
[1]
  MIC: > 64 µg/mL
[2]
  MIC: > 64 µg/mL
[3]
  MIC: > 64 µg/mL

## C/C(=N\NC(N)=O)c1ccc(Nc2nc(-c3ccc(Cl)cc3)cs2)cc1
[1]
  MIC: > 64 µg/mL
[2]
  MIC: > 64 µg/mL
[3]
  MIC: > 64 µg/mL

## CC(=O)c1ccc(Nc2nc(-c3ccc(Br)cc3)cs2)cc1
[1]
  MIC: > 64 µg/mL
[2]
  MIC: > 64 µg/mL
[3]
  MIC: > 64 µg/mL

## C/C(=N\NC(N)=S)c1ccc(Nc2nc(-c3ccccc3)cs2)cc1
[1]
  MIC: > 64 µg/mL
[2]
  MIC: > 64 µg/mL
[3]
  MIC: > 64 µg/mL

## C/C(=N\NC(N)=O)c1ccc(Nc2nc(-c3ccc(C)cc3)cs2)cc1
[1]
  MIC: > 64 µg/mL
[2]
  MIC: 32 µg/mL (≈ 87.6 µM)
[3]
  MIC: 32 µg/mL (≈ 87.6 µM)

## CC(=O)c1ccc(Nc2nc(-c3ccc(C)cc3)cs2)cc1
[1]
  MIC: > 64 µg/mL
[2]
  MIC: > 64 µg/mL
[3]
  MIC: 64 µg/mL (≈ 208 µM)

## C/C(=N\NC(N)=S)c1ccc(Nc2nc(-c3ccc(Br)cc3)cs2)cc1
[1]
  MIC: > 64 µg/mL
[2]
  MIC: > 64 µg/mL
[3]
  MIC: > 64 µg/mL

## C/C(=N\NC(N)=S)c1ccc(Nc2nc(-c3ccc(Cl)cc3)cs2)cc1
[1]
  MIC: > 64 µg/mL
[2]
  MIC: 32 µg/mL (≈ 79.6 µM)
[3]
  MIC: 64 µg/mL (≈ 159 µM)

## C/C(=N\NC(N)=O)c1ccc(Nc2nc(-c3ccccc3)cs2)cc1
[1]
  MIC: > 64 µg/mL
[2]
  MIC: > 64 µg/mL
[3]
  MIC: > 64 µg/mL

## C/C(=N\NC(N)=S)c1ccc(Nc2nc(-c3ccc(C)cc3)cs2)cc1
[1]
  MIC: > 64 µg/mL
[2]
  MIC: > 64 µg/mL
[3]
  MIC: > 64 µg/mL

## CC(=O)c1ccc(Nc2nc(-c3ccc(Cl)cc3)cs2)cc1
[1]
  MIC: > 64 µg/mL
[2]
  MIC: > 64 µg/mL
[3]
  MIC: > 64 µg/mL

## COc1ccc(-c2csc(Nc3ccc(/C(C)=N/NC(=N)N)cc3)n2)cc1
[1]
  MIC: 4 µg/mL (≈ 10.5 µM)
[2]
  MIC: 32 µg/mL (≈ 84.1 µM)
[3]
  MIC: 2 µg/mL (≈ 5.26 µM)

## O=C(O)c1cn(C2CC2)c2cc(N3CCNCC3)c(F)cc2c1=O [CIPROFLOXACIN]
[4]
  Ratio: 127

## CN[C@@H]1[C@@H](O)[C@@H](O[C@@H]2[C@@H](O)[C@H](O[C@H]3O[C@H]([C@@H](C)N)CC[C@H]3N)[C@@H](N)C[C@H]2N)OC[C@]1(C)O [GENTAMICIN C2]
[1]
  MIC: 0.25 µg/mL (≈ 0.539 µM)
[3]
  MIC: 0.25 µg/mL (≈ 0.539 µM)

## CC(=O)NC[C@H]1CN(c2ccc(N3CCOCC3)c(F)c2)C(=O)O1 [LINEZOLID]
[5]
  MBC: 16 µg/mL (≈ 47.4 µM)
  MIC: ≤ 0.5 µg/mL
[6]
  MBC: 64 µg/mL (≈ 190 µM)
  MIC: 1 µg/mL (≈ 2.96 µM)
[7]
  MBC: 32 µg/mL (≈ 94.9 µM)
[8]
  MBC: > 64 µg/mL
  MIC: 64 µg/mL (≈ 190 µM)
[9]
  MBC: 16 µg/mL (≈ 47.4 µM)
  MIC: 1 µg/mL (≈ 2.96 µM)
[10]
  MBC: 16 µg/mL (≈ 47.4 µM)
[11]
  MBC: 32 µg/mL (≈ 94.9 µM)
  MIC: 1 µg/mL (≈ 2.96 µM)
[12]
  MBC: 64 µg/mL (≈ 190 µM)
[13]
  MBC: 16 µg/mL (≈ 47.4 µM)
[14]
  MBC: 32 µg/mL (≈ 94.9 µM)
  MIC: 1 µg/mL (≈ 2.96 µM)
[15]
  MBC: 64 µg/mL (≈ 190 µM)
  MIC: 1 µg/mL (≈ 2.96 µM)
[16]
  MBC: > 64 µg/mL
  MIC: 1 µg/mL (≈ 2.96 µM)
[17]
  MBC: 16 µg/mL (≈ 47.4 µM)
  MIC: 1 µg/mL (≈ 2.96 µM)
[18]
  MBC: 16 µg/mL (≈ 47.4 µM)
  MIC: 1 µg/mL (≈ 2.96 µM)

## CO[C@H]1/C=C/O[C@@]2(C)Oc3c(C)c(O)c4c(O)c(c(/C=N/N5CCN(C)CC5)c(O)c4c3C2=O)NC(=O)/C(C)=C\C=C\[C@H](C)[C@H](O)[C@@H](C)[C@@H](O)[C@@H](C)[C@H](OC(C)=O)[C@@H]1C [RIFAMPIN]
[19]
  solubility kinetic at 2 h: 183 µM (≈ 151 µg/mL)

## CN[C@H](CC(C)C)C(=O)N[C@H]1C(=O)N[C@@H](CC(N)=O)C(=O)N[C@H]2C(=O)N[C@H]3C(=O)N[C@H](C(=O)N[C@H](C(=O)O)c4cc(O)cc(O)c4-c4cc3ccc4O)[C@H](O)c3ccc(c(Cl)c3)Oc3cc2cc(c3O[C@@H]2O[C@H](CO)[C@@H](O)[C@H](O)[C@H]2O[C@H]2C[C@](C)(N)[C@H](O)[C@H](C)O2)Oc2ccc(cc2Cl)[C@H]1O [VANCOMYCIN]
[5]
  MIC: 1 µg/mL (≈ 0.69 µM)
[6]
  MBC: 64 µg/mL (≈ 44.2 µM)
  MIC: 64 µg/mL (≈ 44.2 µM)
[20]
  PAE: 2 h
[7]
  MIC: 1 µg/mL (≈ 0.69 µM)
[8]
  MBC: 2 µg/mL (≈ 1.38 µM)
[9]
  MBC: 2 µg/mL (≈ 1.38 µM)
[10]
  MBC: 64 µg/mL (≈ 44.2 µM)
  MIC: 32 µg/mL (≈ 22.1 µM)
[11]
  MBC: 1 µg/mL (≈ 0.69 µM)
[12]
  MBC: 1 µg/mL (≈ 0.69 µM)
[13]
  MIC: 2 µg/mL (≈ 1.38 µM)
[14]
  MBC: 1 µg/mL (≈ 0.69 µM)
[15]
  MBC: 2 µg/mL (≈ 1.38 µM)
[16]
  MBC: > 64 µg/mL
  MIC: 64 µg/mL (≈ 44.2 µM)
[17]
  MBC: > 64 µg/mL
  MIC: > 64 µg/mL
[18]
  MBC: 2 µg/mL (≈ 1.38 µM)
